Measured values: ChEMBL document CHEMBL1142448, “Design and synthesis of 6-phenylnicotinamide derivatives as antagonists of TRPV1” (Bioorg Med Chem Lett, 2008)
Blank lines part the entries; values can stand above or below the molecule they belong to.

How the values were obtained:
[1] = target: T1, Transient receptor potential cation channel subfamily V member 1 (Homo sapiens, UniProt Q8NER1); assay: Antagonist activity at human TRPV1 expressed in human 1321N1 cells assessed as inhibition of capsaicin-induced calcium influx by FLIPR assay; type: functional, cell-based
[2] = Blood clearance in rat at 1 mg/kg, iv; type: ADME, organism-based; set-up: dose 1 mg/kg, route intravenous; details: whole blood
Liver microsomes = assay: Intrinsic clearance in human liver microsomes; type: ADME, Microsome
[3] = Half life in rat at 1 mg/kg, iv; type: ADME, organism-based; set-up: dose 1 mg/kg, route intravenous; details: in vivo
[4] = Intrinsic clearance in guinea pig liver microsomes; type: ADME, Cavia porcellus, Microsome
Cavia porcellus [5] = assay: Antihyperalgesic activity in guinea pig assessed as reversal of FCA-induced inflammatory pain at 30 mg/kg, sc; type: functional; details: route subcutaneous
[6] = target: T1, Transient receptor potential cation channel subfamily V member 1; assay: Antagonist activity at human TRPV1 expressed in HEK293 cells assessed as inhibition of pH 5.3 acid-induced calcium influx by whole cell patch clamp assay; type: functional, cell-based
[7] = target: T1, Transient receptor potential cation channel subfamily V member 1; assay: Inhibition of human TRPV1 expressed in HEK293 cells assessed as reversible inhibition of heat-activated current at 1 uM by whole cell patch clamp assay relative to control; type: cell-based
[8] = target: Transient receptor potential cation channel subfamily V member 1 (Rattus norvegicus) (UniProt O35433); details: HEK293
Description: Antagonist activity at rat TRPV1 expressed in HEK293 cells assessed as inhibition of capsaicin-induced calcium influx by FLIPR assay

[9] = Oral bioavailability in guinea pig; type: ADME, organism-based, Cavia porcellus; details: in vivo
[10] = target: Transient receptor potential cation channel subfamily V member 1 (Rattus norvegicus, UniProt O35433); assay: Antagonist activity at rat TRPV1 expressed in HEK293 cells assessed as inhibition of pH 5.3 acid-induced calcium influx by FLIPR assay; type: functional, cell-based
[11] = target: Transient receptor potential cation channel subfamily V member 1 (Cavia porcellus, UniProt Q6R5A3); assay: Antagonist activity at guinea pig TRPV1 expressed in HEK293 cells assessed as inhibition of pH 5.3 acid-induced calcium influx by FLIPR assay; type: functional, cell-based
Cavia porcellus [12] = organism: Cavia porcellus; assay: Antihyperalgesic activity against FCA-induced inflammatory pain in guinea pig assessed as paw withdrawal after 1 hr; type: functional
[13] = target: T1, Transient receptor potential cation channel subfamily V member 1; assay: Antagonist activity at human TRPV1 expressed in HEK293 cells assessed as inhibition of pH 5.3 acid-induced calcium influx by FLIPR assay; type: functional, cell-based
[14] = target: T1, Transient receptor potential cation channel subfamily V member 1; assay: Antagonist activity at human TRPV1 expressed in HEK293 cells assessed as inhibition of capsaicin-induced calcium influx by whole cell patch clamp assay; type: functional, cell-based
[15] = target: T1, Transient receptor potential cation channel subfamily V member 1; assay: Antagonist activity at human TRPV1 expressed in HEK293 cells assessed as inhibition of pH 5.3 acid-induced calcium influx at 100 nM by whole cell patch clamp assay; type: functional, cell-based
[16] = target: Transient receptor potential cation channel subfamily V member 1 (Cavia porcellus) (UniProt Q6R5A3); details: HEK293
Description: Antagonist activity at guinea pig TRPV1 expressed in HEK293 cells assessed as inhibition of capsaicin-induced calcium influx by FLIPR assay

[17] = target: T1, Transient receptor potential cation channel subfamily V member 1; assay: Antagonist activity at human TRPV1 expressed in HEK293 cells assessed as inhibition of capsaicin-induced calcium influx at 1 uM by whole cell patch clamp assay; type: functional, cell-based
Cavia porcellus [18] = assay: Antihyperalgesic activity in guinea pig assessed as reversal of FCA-induced inflammatory pain at 5 mg/kg, ip; type: functional; details: route intraperitoneal
[19] = target: T1, Transient receptor potential cation channel subfamily V member 1; details: HEK293
Description: Antagonist activity at human TRPV1 expressed in HEK293 cells assessed as inhibition of capsaicin-induced calcium influx by FLIPR assay

Cytochrome P450 3A4 = Cytochrome P450 3A4 (Homo sapiens, UniProt P08684); assay: Inhibition of CYP3A4; type: ADME
Chain of Cytochrome P450 3A4 (P08684 whole entry): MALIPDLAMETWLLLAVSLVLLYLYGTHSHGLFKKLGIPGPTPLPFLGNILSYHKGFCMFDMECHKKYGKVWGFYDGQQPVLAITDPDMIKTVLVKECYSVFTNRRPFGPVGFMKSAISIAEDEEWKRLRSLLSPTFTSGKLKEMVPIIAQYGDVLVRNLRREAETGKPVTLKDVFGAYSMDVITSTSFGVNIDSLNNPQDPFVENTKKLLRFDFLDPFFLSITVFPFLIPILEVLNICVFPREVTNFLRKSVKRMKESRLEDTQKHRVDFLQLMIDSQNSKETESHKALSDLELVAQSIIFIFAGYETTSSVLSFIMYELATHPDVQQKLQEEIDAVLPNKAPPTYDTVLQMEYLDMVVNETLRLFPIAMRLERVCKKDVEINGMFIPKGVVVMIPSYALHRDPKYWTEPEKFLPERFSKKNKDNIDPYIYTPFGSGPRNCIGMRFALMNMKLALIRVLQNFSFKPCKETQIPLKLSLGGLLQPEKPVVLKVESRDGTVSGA

T1 sequence (Q8NER1 whole entry): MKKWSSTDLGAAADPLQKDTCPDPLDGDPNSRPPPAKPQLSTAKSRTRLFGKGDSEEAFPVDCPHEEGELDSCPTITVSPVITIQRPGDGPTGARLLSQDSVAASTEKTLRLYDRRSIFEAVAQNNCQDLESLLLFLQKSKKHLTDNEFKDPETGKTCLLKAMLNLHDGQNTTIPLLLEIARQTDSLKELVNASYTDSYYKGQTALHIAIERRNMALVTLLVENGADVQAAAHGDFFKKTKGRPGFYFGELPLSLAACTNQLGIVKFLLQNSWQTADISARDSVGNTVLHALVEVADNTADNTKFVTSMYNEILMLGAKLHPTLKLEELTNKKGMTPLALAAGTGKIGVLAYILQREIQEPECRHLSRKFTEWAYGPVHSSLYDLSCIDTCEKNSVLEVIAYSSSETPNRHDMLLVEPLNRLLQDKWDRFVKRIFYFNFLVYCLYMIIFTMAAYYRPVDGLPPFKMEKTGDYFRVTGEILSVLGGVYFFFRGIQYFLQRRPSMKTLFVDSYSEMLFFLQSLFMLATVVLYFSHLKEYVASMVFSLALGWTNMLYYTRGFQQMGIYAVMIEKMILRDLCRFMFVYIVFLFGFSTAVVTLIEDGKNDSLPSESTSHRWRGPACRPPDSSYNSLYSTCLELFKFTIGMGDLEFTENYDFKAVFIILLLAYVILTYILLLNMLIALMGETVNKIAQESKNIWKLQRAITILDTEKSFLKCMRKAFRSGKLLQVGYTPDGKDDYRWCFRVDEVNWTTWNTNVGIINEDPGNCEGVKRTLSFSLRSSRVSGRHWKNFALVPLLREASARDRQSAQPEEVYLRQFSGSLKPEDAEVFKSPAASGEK
Chain of Transient receptor potential cation channel subfamily V member 1 (Rattus norvegicus, UniProt O35433) (O35433 whole entry): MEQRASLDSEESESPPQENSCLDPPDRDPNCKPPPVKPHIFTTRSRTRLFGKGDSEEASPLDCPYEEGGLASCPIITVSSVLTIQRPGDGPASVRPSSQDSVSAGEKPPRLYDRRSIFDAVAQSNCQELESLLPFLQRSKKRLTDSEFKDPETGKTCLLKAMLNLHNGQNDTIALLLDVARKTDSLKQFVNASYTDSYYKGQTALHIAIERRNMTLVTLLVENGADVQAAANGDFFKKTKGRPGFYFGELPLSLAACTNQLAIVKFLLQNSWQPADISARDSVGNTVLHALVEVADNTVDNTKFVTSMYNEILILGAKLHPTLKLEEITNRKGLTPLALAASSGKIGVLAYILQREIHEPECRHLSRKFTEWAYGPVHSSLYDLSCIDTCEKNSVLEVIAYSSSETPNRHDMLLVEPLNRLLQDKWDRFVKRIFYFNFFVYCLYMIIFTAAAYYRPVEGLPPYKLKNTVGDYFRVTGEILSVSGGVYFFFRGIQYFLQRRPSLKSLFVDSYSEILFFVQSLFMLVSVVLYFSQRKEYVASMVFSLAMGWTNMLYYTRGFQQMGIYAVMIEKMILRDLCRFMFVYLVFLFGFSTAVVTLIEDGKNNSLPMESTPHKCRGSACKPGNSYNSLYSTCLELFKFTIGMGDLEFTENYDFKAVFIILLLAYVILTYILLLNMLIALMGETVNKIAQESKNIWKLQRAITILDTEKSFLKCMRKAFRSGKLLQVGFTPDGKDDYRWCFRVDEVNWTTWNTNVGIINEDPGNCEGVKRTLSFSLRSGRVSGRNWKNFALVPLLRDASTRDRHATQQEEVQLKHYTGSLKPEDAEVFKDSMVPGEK
Chain of Transient receptor potential cation channel subfamily V member 1 (Rattus norvegicus) (O35433 whole entry): as above
Chain of Transient receptor potential cation channel subfamily V member 1 (Cavia porcellus, UniProt Q6R5A3) (Q6R5A3 whole entry): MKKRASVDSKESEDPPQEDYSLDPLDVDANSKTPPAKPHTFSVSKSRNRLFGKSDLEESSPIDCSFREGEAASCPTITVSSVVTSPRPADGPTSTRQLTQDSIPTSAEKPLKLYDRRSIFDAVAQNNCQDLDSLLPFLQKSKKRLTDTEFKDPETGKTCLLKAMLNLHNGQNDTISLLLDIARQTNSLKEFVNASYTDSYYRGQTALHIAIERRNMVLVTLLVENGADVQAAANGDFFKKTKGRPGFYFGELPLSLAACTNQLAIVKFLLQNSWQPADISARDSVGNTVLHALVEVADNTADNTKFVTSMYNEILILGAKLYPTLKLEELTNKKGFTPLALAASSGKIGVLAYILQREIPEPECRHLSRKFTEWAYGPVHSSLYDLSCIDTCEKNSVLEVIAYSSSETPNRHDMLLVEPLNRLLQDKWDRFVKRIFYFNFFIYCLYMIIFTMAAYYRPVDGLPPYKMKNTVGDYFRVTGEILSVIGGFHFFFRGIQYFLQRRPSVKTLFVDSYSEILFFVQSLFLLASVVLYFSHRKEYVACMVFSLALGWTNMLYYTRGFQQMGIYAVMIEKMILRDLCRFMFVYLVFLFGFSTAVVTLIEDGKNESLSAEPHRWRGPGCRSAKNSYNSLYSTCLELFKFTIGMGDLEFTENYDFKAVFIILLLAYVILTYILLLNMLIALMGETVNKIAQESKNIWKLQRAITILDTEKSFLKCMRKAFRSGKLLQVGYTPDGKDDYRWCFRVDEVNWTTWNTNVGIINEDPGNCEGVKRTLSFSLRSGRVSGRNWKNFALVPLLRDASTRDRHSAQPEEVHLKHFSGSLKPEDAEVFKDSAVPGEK
Chain of Transient receptor potential cation channel subfamily V member 1 (Cavia porcellus) (Q6R5A3 whole entry): as above

Compound: N#Cc1ccc(C(=O)Nc2ccc3cccnc3c2)cn1
- pKb [1]: < 6.7

Compound: O=C(Nc1ccc2cccnc2c1)c1ccc(-c2ccccc2)nc1
- clearance [2]: 33 mL/min/kg
- CL (Liver microsomes): 3.1 mL/min/g
- half-life [3]: 21.6 min
- CL [4]: 3.9 mL/min/g
- Activity (Cavia porcellus [5]): 32%

Compound: O=C(Nc1ccc2cccnc2c1)c1ccc(-c2ccc(F)cc2)nc1
- CL (Liver microsomes): 1.7 mL/min/g
- CL [4]: 42 mL/min/g
- pKb [1]: 8.2

Compound: Cc1cc(-c2ccccc2)ncc1C(=O)Nc1ccc2cccnc2c1
- pKb [1]: 6.7

Compound: Cc1nc2ccc(NC(=O)c3ccc(-c4ccc(F)cc4)nc3C)cc2[nH]1
- pKb [1]: 6

Compound: O=C(Nc1ccc2cccnc2c1)c1ccc(Cl)nc1
- pKb [1]: < 6.7

Compound: Cc1nc(-c2ccccc2)ccc1C(=O)Nc1ccc2cccnc2c1
- pKb [1]: 9

Compound: O=C(Nc1ccc2cccnc2c1)c1ccc(-c2ccc(Cl)cc2)nc1
- pKb [1]: 7.8

Compound: N#Cc1ccc(-c2ccc(C(=O)Nc3ccc4cccnc4c3)cn2)cc1
- pKb [1]: < 6.6

Compound: Cc1nc(-c2ccc(F)cc2)ccc1C(=O)Nc1ccc2ccn(C)c2c1
- pKb [1]: < 6.5

Compound: Cc1nc2ccc(NC(=O)c3ccc(-c4ccc(F)cc4)nc3C)cc2o1
- pKb [1]: < 6.7

Compound: Cc1nc(-c2ccc(F)cc2)ccc1C(=O)Nc1ccc2c(C)n[nH]c2c1
- pKb [1]: 6.9

Compound: O=C(Nc1ccc2cccnc2c1)c1ccc(-c2ccc(C(F)(F)F)cc2)nc1
- pKb [1]: 7.3

Compound: O=C(Nc1ccc2cccnc2c1)c1ccc(-c2ccccc2F)nc1
- pKb [1]: 8.7

Compound: O=C(Nc1ccc2cccnc2c1)c1ccc(-c2cccc(F)c2)nc1
- pKb [1]: 8.6

Now from value to molecule, other results behind:

- pKb [1]: 7.5
Compound: Cc1nc(-c2ccc(F)cc2)ccc1C(=O)Nc1ccc2cn[nH]c2c1

- pKb [1]: 6.7
Compound: Cc1nc(-c2ccc(F)cc2)ccc1C(=O)Nc1ccc2ncsc2c1

- pKb [1]: < 6.7
Compound: Cc1nc(-c2ccc(F)cc2)ccc1C(=O)Nc1ccc2sc(CN(C)C)nc2c1

- pKb [1]: 7.2
Compound: Cc1nc(-c2ccc(F)cc2)ccc1C(=O)Nc1ccc2nc[nH]c2c1

- pKb [1]: < 5.8
Compound: Cc1nc(-c2ccc(F)cc2)ccc1C(=O)Nc1ccc2sc(N(C)C)nc2c1

- IC50 [6]: 0.009 µM
- CL (Liver microsomes): 2.2 mL/min/g
- inhibition [7]: 87%
- pKb [8]: 7
- bioavailability [9]: 24%
- IC50 [10]: 0.1 µM
- IC50 [11]: 0.0631 µM
- IC50 [13]: 0.0398 µM
- CL [4]: 2.7 mL/min/g
- IC50 [14]: 0.049 µM
- pKb [1]: 7.4
- inhibition [15]: 96%
- pKb [16]: 7.4
- inhibition [17]: 100%
- pKb [19]: 7.2
Compound: Cc1nc2cc(NC(=O)c3ccc(-c4ccc(F)cc4)nc3C)ccc2s1
- Activity (Cavia porcellus [12]): 68%
- ED50 (Cavia porcellus [12]; Cavia porcellus, 1 h): 0.53 mg/kg
- Activity (Cavia porcellus [18]): 48%

- pKb [1]: 6.7
Compound: Cc1nc(-c2ccc(F)cc2)ccc1C(=O)Nc1ccc2ncn(C)c2c1

- pKb [1]: 8.5
- IC50 (Cytochrome P450 3A4): < 10 µM
Compound: Cc1nc(-c2ccc(F)cc2)ccc1C(=O)Nc1ccc2cccnc2c1
- Activity (Cavia porcellus [18]): 42%

- pKb [1]: 7.5
Compound: Cc1nc(-c2ccc(F)cc2)ccc1C(=O)Nc1ccc2scnc2c1
